Source: US11472787B2, “Docosahexaenoic acid endocannabinoid epoxide derivative compositions” (The Board of Trustees of the University of Illinois, priority 2017, dated 2022)

Tests used:
143B cells [1] = test: Annexin V binding apoptosis assay in 143B cells; assay type: cell-based; conditions: 12.5 μM, 24 hours
Method: (§1) All three amino-modified derivatives of 10,11-EDP were tested for their apoptotic activity using a BD biosciences Annexin V binding assay for apoptosis at 12.5 μM concentration (FIG. 2). Cells were grown and maintained in Dulbecco's modified Eagle's medium supplemented with 10% fetal bovine serum, 1% streptomycin and penicillin at 37° C. in a 5% CO2 humidified air atmosphere in 12 well plate to 90% confluency and then appropriate amount of compound or control was added to the well. The cells were incubated for 24 hours and then prepared for apoptosis assays as indicated in BD biosciences Annexin V binding assay kit instructions and analyzed by BD Accuri C6 flow cytometer and FCS flow software. […] However, their effects were not consistent in trend among the three cell lines. The cyclopropyl analog seemed to have the highest pro-apoptotic potential among the three within error limits. […] In 143B cells the increase in pro-apoptotic potential was only 18.8±0.3% for the iso-propyl derivative as compared to 25.7±0.4% for the n-propyl derivative.

HOS cells [2] = test: Scratch (wound migration) assay in HOS cells; assay type: cell-based; conditions: 5 μM; for restriction of wound migration as compared to control: over 10 hours
Method: (§2) A scratch assay was performed to analyze the anti-migratory properties of the three derivatives (FIGS. 3A-3C and 7). Cells were grown and maintained in Dulbecco's modified Eagle's medium supplemented with 10% fetal bovine serum, 1% streptomycin and penicillin at 37° C. in a 5% CO2 humidified air atmosphere in a 12 well plate to a confluent monolayer and then a scratch was made across the center and images were taken. The media was changed and appropriate compounds and controls were added and images of the scratch were taken every 2 hours. The images were processed by ImageJ software. In HOS cells (FIG. 3A), all 10,11-EDP derivatives restricted wound migration at 5 μM concentration.

CNR1 (CB1) = CNR1 (CB1) (Homo sapiens (Human), UniProt P21554); test: Presto-Tango β-arrestin recruitment assay, CNR1; assay type: cell-based; conditions: HTLA cells
Method: (§3) Binding of the parent compounds to putative receptors CNR1 and CNR2 (cannabinoid receptors 1& 2) was measured by a Presto-Tango assay (FIG. 5A and FIG. 5B). […] HTLA were received from the Roth Lab and CNR1 and CNR2 plasmids were purchased from Addgene. HTLA cells were maintained in DMEM with 10% FBS containing 2 μg/mL of puromycin and 100 μg/mL of hygromycin B at 37° C. in a 5% CO2 humidified air atmosphere and grown to 80-90% confluency. Cells were then seeded at 20,000 cells per 100 uL into poly-L-lysine coated 96-well plate. After 18-24 hrs, cells were transfected with CNR2 (0.1 ug/well) using Calfectin as the transfection reagent. Transfection media was replaced after 12-18 hours with serum-media and proceeded for ˜36 hours. On the day of the assay, serum-media was replaced with serum-free media for 4 hours, then the compounds were added in a log dose manner in DMSO to a final well volume of 200 uL and incubated overnight. The next day, media was removed and 20 μL of Bright-Glo solution was added to the cells and incubated for 20 min at room temperature in the dark and measured for luminescence. Relative luminescence units (RLU) values were normalized to % receptor response, plotted as a function of compound concentration and analyzed using “DoseResp” in OriginPro.

MG63 cells [3] = test: Annexin V binding apoptosis assay in MG63 cells; assay type: cell-based; conditions: 12.5 μM, 24 hours
Method: as §1

[4] = biological target: Fatty acid amide hydrolase (FAAH) (Sus scrofa (Pig), UniProt Q9TUI8); test: Susceptibility to FAAH hydrolysis in pig brain membrane preparations; conditions: pig forebrain membranes, amide at 20 μM, 40 min
Method: Fatty acid amide hydrolase (FAAH) is a ubiquitously expressed protein in various mammals and the sequence of the protein has shown to be highly conserved in humans, mouse and pig. […] The preparation of pig forebrain membranes was achieved using dounce homogenization in buffer (50 mM Tris pH 7.4, 1 mM EDTA and 3 mM MgCl2) and membrane pelleting as previously described (Hillard, C. J.; Wilkison, D. M.; Edgemond, W. S.; Campbell, W. B. Characterization of the kinetics and distribution of N-arachidonylethanolamine (anandamide) hydrolysis by rat brain. Biochim Biophys Acta 1995, 1257, 249-56). Incubations contained 5 μg forebrain protein in a 0.5 mL reaction containing 50 mM Tris (pH 7.4), 1 mM EDTA, 3 mM MgCl2, and amide at 20 μM. At 40 min reactions were quenched with methanol containing 1 mM PMSF and centrifuged to pellet protein (10,000 g×10 min). The supernatant was collected and analyzed via LC-MS/MS as outlined below.
The products of hydrolysis were measured by LC-MS/MS as indicated in materials and methods section.

MG63 cells [5] = test: Scratch (wound migration) assay in MG63 cells; assay type: cell-based; conditions: MG63 cell line
Method: as §2

143B cells [6] = test: Scratch (wound migration) assay in 143B cells; assay type: cell-based
Method: as §2

HOS cells [7] = test: Annexin V binding apoptosis assay in HOS cells; assay type: cell-based; conditions: 12.5 μM, 24 hours
Method: as §1

CNR2 (CB2) = CNR2 (CB2) (Homo sapiens (Human), UniProt P34972); test: Presto-Tango β-arrestin recruitment assay, CNR2; assay type: cell-based; conditions: HTLA cells
Method: as §3

HUVEC cells = test: Endothelial tube formation (angiogenesis) assay on matrigel; assay type: cell-based; conditions: 0.5 μM or 1 μM compound, 5 hours
Description: Increased angiogenesis is one of the hallmarks of cancer. The development of neo-vascularization is key for the adequate supply of nutrients and oxygen to the site of metastasis. Endothelial tube formation on matrix has been established as a cellular model for angiogenesis. Endothelial HUVEC cells form a networks of tubes when plated on matrigel and the tube formation in presence and absence of treatment can be quantified as a measure of restricted angiogenic potential.
Angiogenesis in endothelial HUVEC cells was measured using abcam angiogenesis kit (ab204726). Briefly, HUVEC cells at passage 2 (p=2) were grown to 80% confluency. The matrigel provided was thawed overnight and 50 μL was put into each well of a 96 well plate that had been chilled overnight in a −20° C. freezer. The plate was rocked slightly and then allowed to incubate at 37° C. for 1 hour. 15,000 HUVEC cells were then plated into the wells and were treated with vehicle control or 0.5 μM or 1 μM compound. A no matrix control and a control with vinblastine (inhibitor of angiogenesis) was also performed. All wells were performed in duplicates. The plates were then incubated for 5 hours at 37° C. […] The wells were imaged using a fluorescent microscope and analyzed using ImageJ with Angiogenesis Analyzer Plugin. […] The tube formation was assessed by Image J analysis.

BV-2 microglial cells = test: Anti-inflammatory assay in LPS-stimulated microglial cells; assay type: cell-based, mouse; conditions: BV-2 cells, 4 hours pre-incubation, 25 ng/mL LPS
Method: The anti-inflammatory effect of parent compounds was tested by measuring nitrite production in Bv2 microglial cells and the reduction in pro-inflammatory cytokine IL-6 (FIG. 4). Experiments were performed with mouse BV-2 microglial cells. Cells were grown and maintained in Dulbecco's modified Eagle's medium supplemented with 10% fetal bovine serum, 1% streptomycin and penicillin at 37° C. in a 5% CO2 humidified air atmosphere. BV-2 cells were seeded in 24-well plates (200K cells/mL) and grown to 80-90% confluency. For regioisomer screening and dose response studies, media was replaced with serum-free media and the cells were pre-incubated with the regioisomers for 4 hours prior to stimulation with 25 ng/mL LPS (Sigma-Aldrich, USA). Production of nitric oxide (NO) and cell toxicity and IL-6 production were measured.

Chain of Fatty acid amide hydrolase (FAAH) (Q9TUI8 whole entry): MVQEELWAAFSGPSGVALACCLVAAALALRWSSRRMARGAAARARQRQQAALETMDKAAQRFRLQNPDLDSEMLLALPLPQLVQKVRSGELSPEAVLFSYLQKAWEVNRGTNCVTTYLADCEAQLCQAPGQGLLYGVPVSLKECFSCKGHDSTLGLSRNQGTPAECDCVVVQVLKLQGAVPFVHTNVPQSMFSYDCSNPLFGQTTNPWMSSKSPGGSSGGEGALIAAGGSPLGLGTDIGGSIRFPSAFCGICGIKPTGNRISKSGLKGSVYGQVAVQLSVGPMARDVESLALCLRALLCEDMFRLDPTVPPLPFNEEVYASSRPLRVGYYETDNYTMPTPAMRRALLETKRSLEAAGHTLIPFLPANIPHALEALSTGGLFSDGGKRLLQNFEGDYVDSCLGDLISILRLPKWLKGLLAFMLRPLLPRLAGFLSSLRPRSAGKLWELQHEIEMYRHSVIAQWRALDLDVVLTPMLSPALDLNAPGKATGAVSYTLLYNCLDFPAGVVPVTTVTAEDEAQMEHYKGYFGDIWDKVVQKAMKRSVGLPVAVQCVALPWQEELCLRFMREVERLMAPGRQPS

CC/C=C\C/C=C\C/C=C\CC1OC1C/C=C\C/C=C\CCC(=O)NC1CC1 (stereo not shown) [10,11-EDP-CA, (4Z,7Z)—N-Cyclopropyl-9-(3-((2Z,5Z,8Z)-undeca-2,5,8-trien-1-yl)oxiran-2-yl)nona-4,7-dienamide]
apoptosis (apoptotic potential) (143B cells [1]): 21.3±1.9%
inhibition of migration more than vehicle control (HOS cells [2]; 8 and 10 hour time points): 4.5-6 times
restriction of wound migration as compared to control (HOS cells [2]): most potent
EC50 (CNR1 (CB1)): 0.03 nM
apoptosis (apoptotic potential) (MG63 cells [3]): 17.09±4.4%
rate of hydrolysis [4]: 5.17±0.06 pmol min^−1 mg protein^−1
restriction in wound healing as compared to the control (MG63 cells [5]): comparable to 10, 1-EDP-EA
restriction in wound migration as compared to the control (143B cells [6]): most potent
apoptosis (apoptotic potential) (HOS cells [7]): 27.19±4.05%
EC50 (CNR2 (CB2)): 0.46 nM

CC/C=C\C/C=C\C/C=C\CC1OC1C/C=C\C/C=C\CCC(=O)NCCO (stereo not shown) [10,11-EDP-EA, reference compound]
restriction of wound migration as compared to control (HOS cells [2]): 1.00-1.44 times
EC50 (CNR1 (CB1)): 0.43 nM
rate of hydrolysis [4]: 30.0±0.3 pmol min^−1 mg protein^−1
restriction in wound healing as compared to the control (MG63 cells [5]): 1-2 times
restriction in wound migration as compared to the control (143B cells [6]): 1-1.9 times
tube formation (angiogenesis) (HUVEC cells): Prevent Angiogenesis
EC50 (CNR2 (CB2)): 22.5 nM

CC/C=C\C/C=C\C/C=C\CC1OC1C/C=C\C/C=C\CCC(=O)NC(C)CO (stereo not shown) [10,11-EDP-IA, (4Z,7Z)—N-(1-Hydroxypropan-2-yl)-9-(3-((2Z,5Z,8Z)-undeca-2,5,8-trien-1-yl)oxiran-2-yl)nona-4,7-dienamide]
apoptosis (apoptotic potential) (143B cells [1]): 18.8±0.3%
restriction of wound migration as compared to control (HOS cells [2]): 1-1.75 times
EC50 (CNR1 (CB1)): 0.07 nM
apoptosis (apoptotic potential) (MG63 cells [3]): 17.48±2.8%
rate of hydrolysis [4]: 0.99±0.04 pmol min^−1 mg protein^−1
restriction in wound healing as compared to the control (MG63 cells [5]): slightly poorer than the control
restriction in wound migration as compared to the control (143B cells [6]): 1-3.9 times
apoptosis (apoptotic potential) (HOS cells [7]): 20.15±1.75%
EC50 (CNR2 (CB2)): 0.08 nM

CC/C=C\C/C=C\C/C=C\CC1OC1C/C=C\C/C=C\CCC(=O)NCCCO (stereo not shown) [10,11-EDP-NA, (4Z,7Z)—N-(3-Hydroxypropyl)-9-(3-((2Z,5Z,8Z)-undeca-2,5,8-trien-1-yl)oxiran-2-yl)nona-4,7-dienamide]
apoptosis (apoptotic potential) (143B cells [1]): 25.7±0.4%
restriction of wound migration as compared to control (HOS cells [2]): 1-1.7 times
EC50 (CNR1 (CB1)): 0.19 nM
apoptosis (apoptotic potential) (MG63 cells [3]): 15.15±3.28%
restriction in wound healing as compared to the control (MG63 cells [5]): slightly poorer than the control
restriction in wound migration as compared to the control (143B cells [6]): 1-1.47 times
apoptosis (apoptotic potential) (HOS cells [7]): 17.05±1.4%
EC50 (CNR2 (CB2)): 7.3 nM

CCC1OC1C/C=C\C/C=C\C/C=C\C/C=C\C/C=C\CCC(=O)NCCO (stereo not shown) [19,20-EDP-EA]
rate of hydrolysis [4]: 150 pmol min^−1 mg protein^−1
IL-6 production (BV-2 microglial cells): reduction in 11-6 and nitrite in a dose dependent manner
nitrite production (BV-2 microglial cells): reduction in 11-6 and nitrite in a dose dependent manner
